US9266817B2, “Catecholamine derivatives for obesity and neurological disorders” (EMORY UNIVERSITY, priority 2009, dated 2016)

How the values were obtained:
BDNF = assay: Quantitative analysis of BDNF in mouse brain during drug treatment; assay type: in vivo, mice; details: during the drug treatment
TrkB [1] = molecular target: T1, TrkB (Rattus norvegicus, UniProt Q63604); assay: Immunoblotting of TrkB phosphorylation in primary cortical neurons treated with catecholamines; assay type: cell-based
T1 construct: endogenous in cells; host or cells: primary rat cortical and hippocampal neurons
Method: Primary cultured rat cortical neurons were prepared as follows. E17 rat pups were decapitated and cortex was extirpated, cross chopped and suspended by pipetting for separation in 5% fetal calf serum (FCS), 5% horse serum (HS) DMEM. The cell suspension was then centrifuged at 250×g for 5 min. This operation was repeated. Cells were seeded into polyethyleneimine-coated 10 cm^2 dishes and 12-well plates including coated-coverslips and incubated at 37° C. in 5% CO2/95% air. After 3 hours, the culture medium was changed to Neurobasal containing B-27 supplement (Invitrogen; Carlsbad, Calif.) and incubated for 4 days. For maintenance, half of the culture medium was changed to fresh Neurobasal/B27 in every 4 days. After 1 week, the dished cultured neurons were ready for use.
To explore whether monoamine neurotransmitters, including catecholamines (see, e.g., FIG. 1), could stimulate TrkB activation, hippocampal neurons were treated with 300 nM of catecholamines, serotonin, and melatonin for 30 min.

TrkB [2] = molecular target: T2, TrkB (Mus musculus, UniProt P15209, F616A); assay type: in vivo; details: L-DOPA 50 mg/kg, DOPS 100 mg/kg, 1NMPP1 50 μM
T2 construct: from tissue; host or cells: mouse brain
Method: The DOPS concentration was 20 mg/ml, the vitamin C concentration was 2 mg/ml, and the benserazide concentration was 5 mg/ml. The vitamin C prevents oxidation of the DOPS, and the benserazide is a peripheral inhibitor of AADC and restricts the production of NE from DOPS to the brain. The compounds were added to a tube, and 20 μl of 10 M HCl was added to each ml of DOPS solution. The appropriate amount of water was added to the tube, and then HCl was added to achieve the desired volume. For example, to make 1 mL of a DOPS solution, 20 mg DOPS, 2 mg vitamin C, and 5 mg benserazide were added to a tube, followed by 980 μL of water and 20 μL of 10 M HCl. The solution was vortexed until all DOPS was dissolved. The DOPS solution was injected subcutaneously in a volume of 50 μl/g of mouse. The appropriate amount of DOPS solution was pipetted into a clean tube, followed by the amount of 10 M NaOH required to exactly neutralize the HCl. The solution was then shaken. The amount of 10 M NaOH is the weight of the mouse in microliters. For example, for a 20 g mouse, pipet 1 ml of the DOPS solution is pipetted into a tube and 20 μL of 10 M NaOH is added. For a 30 g mouse, 1.5 mL of the DOPS solution is pipetted into a tube and 30 μl of 10 M NaOH is added. Two to four month-old TrkBF616A mice were pretreated with 1NMPP1 in drinking water (50 μM) 1 day before L-DOPA (50 mg/kg) or DOPS (100 mg/kg) intraperitoneal injection. At times of 2 hours and 5 hours after drug administration, the L-DOPA or DOPS-treated mice were sacrificed, respectively. The brain lysates were prepared and analyzed by immunoblotting against anti-phospho-TrkB Y816 and TrkA Y794 antibodies.
TrkB F616A mice were pretreated with 1NMPP1 (50 μM) before L-DOPA or DOPS administration.

TrkB [3] = assay type: in vivo
TrkA = molecular target: T3, TrkA (Mus musculus, UniProt Q3UFB7); assay: TrkA activation in mouse brain after DOPS (control); assay type: in vivo; details: wild-type and DBH -/- mice
T3 construct: from tissue; host or cells: mouse brain
Method: Mice lacking dopamine β-hydroxylase (DBH) are unable to synthesize noradrenaline (essential for mouse fetal development) or adrenaline and die in utero. Administration of DOPS, which can be converted to noradrenaline in the absence of DBH, rescued DBH −/− mice from dying. Mature DBH −/− mice can live without supplemental of DOPS. […] In wild-type control mice, DOPS induced TrkB activation in a time dependent manner with the maximal effect at 12 hours. In contrast, DOPS-triggered TrkB activation occurred at 1 hour, peaked at 5 hours, and decreased at 12 hours in DBH −/− mice. As a control, TrkA was not activated.

TrkB [4] = molecular target: TrkB (Homo sapiens, UniProt Q16620); assay: TrkB activation by catecholamines in TrkB-transfected HEK293 cells pretreated with OCT3 inhibitor; assay type: cell-based; parameters: expressed in transfected cells; host or cells: HEK293; details: 2 μM, 30 minutes pretreatment, catecholamines 15 minutes
Method: HEK293 cells were transfected with TrkB and pretreated with the OCT3 inhibitor decynium (2 μM) for 30 minutes, followed by stimulation with catecholamines for 15 minutes. The cell lysates were monitored by immunoblotting with anti-p-TrkB-Y-816. […] An equal amount of TrkB was expressed in each sample (FIG. 22A, lower panel).

T2 sequence (P15209 32-821 F616A): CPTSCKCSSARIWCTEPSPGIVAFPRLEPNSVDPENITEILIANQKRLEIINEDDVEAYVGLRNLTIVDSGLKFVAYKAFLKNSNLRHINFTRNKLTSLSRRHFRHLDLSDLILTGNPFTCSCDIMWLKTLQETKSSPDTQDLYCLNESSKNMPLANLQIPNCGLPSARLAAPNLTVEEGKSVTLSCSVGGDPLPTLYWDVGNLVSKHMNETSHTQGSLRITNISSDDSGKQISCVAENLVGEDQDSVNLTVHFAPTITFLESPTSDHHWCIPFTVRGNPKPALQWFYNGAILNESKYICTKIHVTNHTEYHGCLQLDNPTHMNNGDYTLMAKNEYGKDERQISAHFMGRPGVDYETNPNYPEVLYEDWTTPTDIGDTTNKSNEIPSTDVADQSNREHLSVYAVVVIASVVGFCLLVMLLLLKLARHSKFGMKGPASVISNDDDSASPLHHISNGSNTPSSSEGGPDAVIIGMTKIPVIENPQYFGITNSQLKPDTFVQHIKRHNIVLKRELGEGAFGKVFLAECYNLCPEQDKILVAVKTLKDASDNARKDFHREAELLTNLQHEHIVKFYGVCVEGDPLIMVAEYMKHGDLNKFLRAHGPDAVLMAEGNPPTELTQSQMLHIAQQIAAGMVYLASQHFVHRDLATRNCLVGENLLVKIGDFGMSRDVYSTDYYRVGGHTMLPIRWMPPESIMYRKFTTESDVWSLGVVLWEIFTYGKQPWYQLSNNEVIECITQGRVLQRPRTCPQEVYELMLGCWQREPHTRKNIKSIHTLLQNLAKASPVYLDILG
T1 sequence (Q63604 32-821): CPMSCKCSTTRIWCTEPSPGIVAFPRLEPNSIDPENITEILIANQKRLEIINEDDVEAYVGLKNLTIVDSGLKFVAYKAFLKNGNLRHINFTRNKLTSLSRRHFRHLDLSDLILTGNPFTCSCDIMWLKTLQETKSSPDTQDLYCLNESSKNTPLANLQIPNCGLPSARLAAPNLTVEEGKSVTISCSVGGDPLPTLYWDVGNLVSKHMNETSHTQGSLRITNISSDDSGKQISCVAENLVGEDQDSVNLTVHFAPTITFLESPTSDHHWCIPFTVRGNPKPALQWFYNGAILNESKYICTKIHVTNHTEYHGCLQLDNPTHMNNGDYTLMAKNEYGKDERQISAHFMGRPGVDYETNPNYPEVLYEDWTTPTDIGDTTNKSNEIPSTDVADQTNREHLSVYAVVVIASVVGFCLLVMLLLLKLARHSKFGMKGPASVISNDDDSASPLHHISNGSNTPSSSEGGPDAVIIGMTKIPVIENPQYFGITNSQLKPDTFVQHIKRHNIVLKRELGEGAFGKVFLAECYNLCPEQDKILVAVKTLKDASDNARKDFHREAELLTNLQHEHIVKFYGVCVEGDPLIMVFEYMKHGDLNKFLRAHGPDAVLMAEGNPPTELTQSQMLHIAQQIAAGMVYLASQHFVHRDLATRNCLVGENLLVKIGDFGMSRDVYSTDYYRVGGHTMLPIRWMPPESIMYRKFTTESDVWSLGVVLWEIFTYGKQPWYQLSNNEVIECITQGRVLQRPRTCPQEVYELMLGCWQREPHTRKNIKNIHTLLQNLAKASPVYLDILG
T3 sequence (Q3UFB7 34-799): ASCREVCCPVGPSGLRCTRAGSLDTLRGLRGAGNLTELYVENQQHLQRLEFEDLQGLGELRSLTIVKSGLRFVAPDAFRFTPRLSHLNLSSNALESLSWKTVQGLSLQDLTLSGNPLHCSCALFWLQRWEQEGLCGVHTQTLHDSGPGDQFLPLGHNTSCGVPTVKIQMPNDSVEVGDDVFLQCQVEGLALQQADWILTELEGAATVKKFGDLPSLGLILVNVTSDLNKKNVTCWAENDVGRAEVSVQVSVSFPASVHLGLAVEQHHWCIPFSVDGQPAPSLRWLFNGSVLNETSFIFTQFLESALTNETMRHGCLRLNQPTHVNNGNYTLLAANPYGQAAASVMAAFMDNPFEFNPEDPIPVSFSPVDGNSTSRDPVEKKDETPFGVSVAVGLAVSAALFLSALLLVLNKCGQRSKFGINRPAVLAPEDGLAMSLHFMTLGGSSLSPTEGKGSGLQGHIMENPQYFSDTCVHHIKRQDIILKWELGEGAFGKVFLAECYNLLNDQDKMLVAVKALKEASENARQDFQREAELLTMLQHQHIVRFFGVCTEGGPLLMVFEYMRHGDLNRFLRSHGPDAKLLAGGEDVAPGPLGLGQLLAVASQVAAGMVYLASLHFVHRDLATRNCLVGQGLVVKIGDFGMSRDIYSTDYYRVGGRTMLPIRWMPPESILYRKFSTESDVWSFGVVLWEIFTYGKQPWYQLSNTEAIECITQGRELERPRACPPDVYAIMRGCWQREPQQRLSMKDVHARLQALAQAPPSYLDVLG
TrkB (Homo sapiens, UniProt Q16620), sequence (Q16620 32-822, species assumed): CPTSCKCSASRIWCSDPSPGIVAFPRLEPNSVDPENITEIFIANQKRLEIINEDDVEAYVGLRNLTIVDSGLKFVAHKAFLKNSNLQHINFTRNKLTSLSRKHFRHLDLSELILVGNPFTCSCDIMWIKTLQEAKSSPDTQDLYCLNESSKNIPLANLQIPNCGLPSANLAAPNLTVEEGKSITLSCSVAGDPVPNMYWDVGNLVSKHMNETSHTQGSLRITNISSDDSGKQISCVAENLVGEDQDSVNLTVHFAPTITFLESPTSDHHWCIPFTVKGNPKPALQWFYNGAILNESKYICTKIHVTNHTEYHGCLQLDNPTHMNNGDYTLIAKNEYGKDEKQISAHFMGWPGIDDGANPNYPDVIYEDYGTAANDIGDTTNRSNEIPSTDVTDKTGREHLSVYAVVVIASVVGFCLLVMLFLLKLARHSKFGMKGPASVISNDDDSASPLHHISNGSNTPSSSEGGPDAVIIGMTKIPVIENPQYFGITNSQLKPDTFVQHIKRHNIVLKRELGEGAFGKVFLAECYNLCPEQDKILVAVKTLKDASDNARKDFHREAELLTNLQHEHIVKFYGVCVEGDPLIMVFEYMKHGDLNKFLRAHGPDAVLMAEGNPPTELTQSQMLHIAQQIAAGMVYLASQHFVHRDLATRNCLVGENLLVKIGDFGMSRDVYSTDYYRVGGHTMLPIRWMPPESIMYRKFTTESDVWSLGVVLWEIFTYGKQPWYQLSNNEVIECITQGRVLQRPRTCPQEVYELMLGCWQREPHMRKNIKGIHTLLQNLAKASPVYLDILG

Row | Compound | BDNF in mouse brain (BDNF) | TrkB activation in primary cultured neurons (TrkB [1]) | TrkB tyrosine phosphorylation/activation in mice (TrkB [2]) | TrkB activation in BDNF -/- cortex (TrkB [3]; BDNF conditional knockout mice, compared to vehicle control) | Time at which TrkB activation occurred (TrkB [3]; DBH -/- mice, intraperitoneal) | Time at which TrkB activation peaked (TrkB [3]; DBH -/- mice, intraperitoneal) | TrkB activation at 12 hours (TrkB [3]; DBH -/- mice, intraperitoneal) | Time of maximal effect on TrkB activation (TrkB [3]; wild-type control mice, intraperitoneal) | TrkA activation in mouse brain (TrkA) | Effect of OCT3 inhibitor on TrkB activation by catecholamines (TrkB [4])
1 | N[C@H](C(=O)O)[C@H](O)c1ccc(O)c(O)c1 [DOPS, dihydroxyphenylserine] | not significantly altered | rapidly induced TrkB activation | provoked evident TrkB activation | strongly triggered TrkB activation | 1 h | 5 h | decreased | 12 h | not activated | 
2 | CCN1/C(=C/c2ccc3ccccc3[n+]2CC)C=Cc2ccccc21.[I-] [decynium] |  |  |  |  |  |  |  |  |  | failed to inhibit
